# Test results: patent publication US6756374B2, “Diaminothiazoles having antiproliferative activity” (Hoffmann-La Roche Inc., priority 2001, dated 2004)
# How the values were obtained:
# human cyclin D1-CDK4 = human cyclin D1-CDK4 (Homo sapiens, UniProt P11802); assay: FlashPlate kinase assay, cyclin D1-CDK4; type: biochemical; conditions: Rb protein substrate, 1 μM ATP
# Protocol: (§1) To determine inhibition of Cdk4, Cdk2 and Cdk1 activity, kinase assays were conducted using FlashPlate™ assays (NEN™-Life Science Products). FlashPlate assays were performed using recombinant human cyclin B-CDK1, human cyclin E-CDK2 or human cyclin D1-CDK4 complexes. GST-cyclinE (GST-cycE), CDK2, GST-cyclinB (GST-cycB), CDK1, GST-CDK4 and cyclin D1 (cycD1) cDNA clones in baculovirus vectors were provided by Dr. W. Harper at the Baylor College of Medicine, Houston, Tex.
# (§2) The expression of the 62Kd protein was under the control of an IPTG inducible promoter in an M15 E. coli strain. Cells were lysed by sonication and purification was carried out by binding lysates at pH 8.0 to a Ni-chelated agarose column pretreated with 1 mM imidazole. The resin was then washed several times with incrementally decreasing pH buffers to pH 6.0, and eluted with 500 mM imidazole. Eluted protein was dialysed against 20 mM HEPES pH 7.5, 30% glycerol, 200 mM NaCl, and 1 mM DTT. Purified Rb fusion protein stocks were quantitated for protein concentration, aliquoted, and stored at −70° C.
# (§3) For all three kinase assays reported herein, 96-well FlashPlates were coated with Rb protein at 10 μg/ml, using 100 μl per well. Plates were incubated at 4° C. overnight or at room temperature for 3 hours on a shaker. To control for nonspecific phosphorylation, one row of wells was coated with 100 μl/well coating buffer (20 mM HEPES, 0.2 M NaCl). Plates were then washed twice with wash buffer (0.01% Tween 20 in phosphate-buffered saline). Compounds to be tested (“test compounds”) were added to the wells at 5×final concentration. Reactions were initiated by immediate addition of 40 μl reaction mix (25 mM HEPES, 20 mM MgCl2, 0.002% Tween 20, 2 mM DTT, 1 μM ATP, 4 nM ^33P-ATP) and a sufficient amount of enzyme to give counts that were at least 10-fold above background. Plates were incubated at room temperature on a shaker for 30 minutes. Plates were washed four times with the wash buffer, sealed, and counted on the TopCount scintillation counter (Packard Instrument Co., Downers Grove, Ill.]. The percent inhibition of Rb phosphorylation, which is a measure of the inhibition of CDK activity, was determined according to the following formula: [formula]
# (§4) where “test compound” refers to the average counts per minute of the test duplicates, “nonspecific” refers to the average counts per minute when no CyclinD/Cdk4, etc., was added, and “total” refers to the average counts per minute when no compound was added.
# human cyclin E-CDK2 = human cyclin E-CDK2 (Homo sapiens, UniProt P24941); assay: FlashPlate kinase assay, cyclin E-CDK2; type: biochemical; conditions: Rb protein substrate, 1 μM ATP
# Protocol: as §1, §2, §3, §4
# human cyclin B-CDK1 = human cyclin B-CDK1 (Homo sapiens, UniProt P06493); assay: FlashPlate kinase assay, cyclin B-CDK1; type: biochemical; conditions: Rb protein substrate, 1 μM ATP
# Protocol: as §1, §2, §3, §4
# HCT116 = assay: Tetrazolium dye (MTT) proliferation assay; type: cell-based; conditions: Homo sapiens, HCT-116; HCT116 colorectal carcinoma cell line
# Protocol: The cell line used was HCT116, a colorectal carcinoma cell line obtained from the American Type Cell Culture Collection (ATCC;
# Rockville, Md.). The cells were grown in McCoy's 5A medium supplemented with 10% FCS and L-glutamine.
# Cells were plated at the appropriate seeding density to give logarithmic growth over the course of the assay in a 96-well tissue culture plate. Plates were incubated overnight at 37° C. in a humidified incubator with 5% CO2. The next day, test compounds were serially diluted to four times the final concentration in the appropriate medium containing 1.2% DMSO. One-fourth final volume of each dilution was added in duplicate to the plates containing cells. The same volume of 1.2% DMSO in medium was added to a row of “control wells” such that the final concentration of DMSO in each well was 0.3%. Wells to which no cells were added served as the “blank.” Wells to which no inhibitor was added served as “no inhibitor control.” The plates were) returned to the incubator, and at set time points (determined by their growth curves) plates were analyzed as described below.
# 3-(4,5-dimethylthiazole-2-yl)-2,5-diphenyl-2H-tetrazolium bromide (thiazolyl blue; MTT; Sigma) was added to each well to yield a final concentration of 1 mg/ml. Plates were returned to the incubator for 2.5-3 hours at 37° C. The MTT-containing medium was removed and the resulting formazan metabolite was solubilized in 100% ethanol with shaking for 15 minutes at room temperature. Absorbance readings were taken in a microtiter plate reader (Dynatech and Molecular Devices plate readers were used interchangeably) at a wavelength of 570 nm with a 650 nm reference. Percent inhibition (% INH) is calculated by subtracting the absorbance of the blank well from all wells, then subtracting the ratio of the average absorbance of each test duplicate (SAVE) by the average of the controls (CAVE) from 1.00. The final number is then multiplied by 100 (% INH=(1.00−SAVE/CAVE)×100).
# human cyclin B-CDK1, sequence (P06493 whole entry): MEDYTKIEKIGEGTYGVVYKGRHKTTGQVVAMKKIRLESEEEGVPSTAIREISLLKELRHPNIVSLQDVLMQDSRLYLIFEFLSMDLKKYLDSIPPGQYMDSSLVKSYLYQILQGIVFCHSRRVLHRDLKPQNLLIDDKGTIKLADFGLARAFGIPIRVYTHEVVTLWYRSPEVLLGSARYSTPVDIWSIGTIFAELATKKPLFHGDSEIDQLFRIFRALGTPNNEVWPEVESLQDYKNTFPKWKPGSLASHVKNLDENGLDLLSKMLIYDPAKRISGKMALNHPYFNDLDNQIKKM
# human cyclin B-CDK1, sequence (P14635 whole entry partner): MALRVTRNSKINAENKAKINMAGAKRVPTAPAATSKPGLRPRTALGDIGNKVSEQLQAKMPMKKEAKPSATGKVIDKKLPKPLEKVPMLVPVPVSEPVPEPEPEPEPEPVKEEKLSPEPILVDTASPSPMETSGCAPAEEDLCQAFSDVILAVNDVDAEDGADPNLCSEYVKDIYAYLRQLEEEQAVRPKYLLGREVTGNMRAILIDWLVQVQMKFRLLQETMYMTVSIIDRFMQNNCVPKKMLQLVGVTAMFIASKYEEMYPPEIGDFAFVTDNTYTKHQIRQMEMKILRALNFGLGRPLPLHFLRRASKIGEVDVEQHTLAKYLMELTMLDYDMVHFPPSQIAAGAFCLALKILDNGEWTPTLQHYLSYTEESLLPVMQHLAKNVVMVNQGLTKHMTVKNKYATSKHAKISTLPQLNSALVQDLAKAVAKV
# human cyclin D1-CDK4, sequence (P11802 whole entry): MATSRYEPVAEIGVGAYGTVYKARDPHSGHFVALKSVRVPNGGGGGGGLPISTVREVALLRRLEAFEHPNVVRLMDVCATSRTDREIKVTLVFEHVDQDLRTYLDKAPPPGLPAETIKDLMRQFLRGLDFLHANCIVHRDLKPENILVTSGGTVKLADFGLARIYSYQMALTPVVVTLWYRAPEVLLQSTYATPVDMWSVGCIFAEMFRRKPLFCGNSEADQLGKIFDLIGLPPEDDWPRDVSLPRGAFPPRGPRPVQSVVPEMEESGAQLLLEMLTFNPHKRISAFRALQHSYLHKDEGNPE
# human cyclin D1-CDK4, sequence (P24385 whole entry partner): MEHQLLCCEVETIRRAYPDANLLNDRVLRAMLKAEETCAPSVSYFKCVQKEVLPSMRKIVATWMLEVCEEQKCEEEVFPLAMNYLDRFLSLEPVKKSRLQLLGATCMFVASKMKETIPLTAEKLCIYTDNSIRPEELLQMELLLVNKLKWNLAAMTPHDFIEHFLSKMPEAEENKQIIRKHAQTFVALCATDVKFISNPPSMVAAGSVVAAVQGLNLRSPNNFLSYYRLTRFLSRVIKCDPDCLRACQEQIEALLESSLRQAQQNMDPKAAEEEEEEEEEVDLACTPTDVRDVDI
Compound,IC50 (human cyclin D1-CDK4) [µM],IC50 (human cyclin E-CDK2) [µM],IC50 (human cyclin B-CDK1) [µM],IC50 (HCT116) [µM]
"CN1CCN(c2ccc(Nc3nc(N)c(C(=O)c4ccc(NCCO)c([N+](=O)[O-])c4)s3)cc2)CC1 [Example 57, [4-Amino-2-[[4-(4-methyl-1-piperazinyl)phenyl]amino]-5-thiazolyl][4-(2-hydroxyethyl)amino-3-nitrophenyl]methanone]",0.009,1.9,0.9,2.1
CN1CCN(c2ccc(Nc3nc(N)c(C(=O)c4ccc(N5CCCC5)c(N)c4)s3)cc2)CC1 [Example 65],0.026,7.4,2.2,1.2
"COc1cccc(C(=O)c2sc(Nc3ccc(N4CCN(C)CC4)cc3)nc2N)c1 [Example 36, [4-Amino-2-[[4-(4-methyl-1-piperazinyl)phenyl]amino]-5-thiazolyl](3-methoxyphenyl)methanone]",0.025,5.4,2.1,2.8
"CN1CCN(c2ccc(Nc3nc(N)c(C(=O)c4ccc5c(c4)OCO5)s3)cc2)CC1 [Example 25, [4-Amino-2-[[4-(4-methyl-1-piperazinyl)phenyl]amino]-5-thiazolyl](1,3-benzodioxol-5-yl)methanone]",0.018,3.5,0.5,3.5
"Nc1nc(Nc2ccc(N3CCNCC3)cc2)sc1C(=O)c1ccc(N2CCCC2)cc1 [Example 55, [4-Amino-2-[[4-(1-piperazinyl)phenyl]amino]-5-thiazolyl][4-(1-pyrrolidinyl)phenyl]methanone]",0.05,3.2,4.3,3.8
"Nc1nc(Nc2ccc(N3CCNCC3)cc2)sc1C(=O)c1cccc(F)c1 [Example 54, [4-Amino-2-[[4-(1-piperazinyl)phenyl]amino]-5-thiazolyl](3-fluorophenyl)methanone]",0.013,0.2,0.3,0.7
"CC(C)C[C@H](CO)Nc1ccc(C(=O)c2sc(Nc3ccc(N4CCN(C)CC4)cc3)nc2N)cc1N [Example 66, (R)-[3-Amino-4-[[1-(hydroxymethyl)-3-methylbutyl]amino]phenyl][4-amino-2-[[4-(4-methyl-1-piperazinyl)phenyl]amino]-5-thiazolyl]methanone]",0.02,3.8,9.6,10.8
"CN1CCN(c2ccc(Nc3nc(N)c(C(=O)c4ccc(N5CCCC5)cc4)s3)cc2)CC1 [Example 26, [4-Amino-2-[[4-(4-methyl-1-piperazinyl)phenyl]amino]-5-thiazolyl][4-(1-pyrrolidinyl)phenyl]methanone]",0.059,6.2,9,5.6
"CN1CCN(c2ccc(Nc3nc(N)c(C(=O)c4ccc(N5CCCC(CO)C5)c([N+](=O)[O-])c4)s3)cc2)CC1 (racemic) [Example 61, [4-Amino-2-[[4-(4-methyl-1-piperazinyl)phenyl]amino]-5-thiazolyl][3-nitro-4-[3-(hydroxymethyl)-1-piperidinyl]phenyl]methanone]",0.012,2.3,3.5,3.9
"Nc1nc(Nc2ccc(N3CCN(CCO)CC3)cc2)sc1C(=O)c1ccc2c(c1)OCCO2 [Example 49, [4-Amino-2-[[4-[4-(2-hydroxyethyl)-1-piperazinyl]phenyl]amino]-5-thiazolyl](2,3-dihydro-1,4-benzodioxin-6-yl)methanone]",0.015,1.5,2.1,5.3
"CC(C)N1CCN(c2ccc(Nc3nc(N)c(C(=O)c4ccc5c(c4)OCO5)s3)cc2)CC1 [Example 42, [4-Amino-2-[[4-[4-(1-methylethyl)-1-piperazinyl]phenyl]amino]-5-thiazolyl](1,3-benzodioxol-5-yl)methanone]",0.01,2.9,1.9,1.5
"CN1CCN(c2ccc(Nc3nc(N)c(C(=O)c4ccc(N5CCOCC5)c([N+](=O)[O-])c4)s3)cc2)CC1 [Example 59, [4-Amino-2-[[4-(4-methyl-1-piperazinyl)phenyl]amino]-5-thiazolyl][3-nitro-4-(4-morpholinyl)phenyl]methanone]",0.024,4.4,4.3,3.9
"COc1ccc(C(=O)c2sc(Nc3ccc(N4CCNCC4)cc3)nc2N)cc1F [Example 56, [4-Amino-2-[[4-(1-piperazinyl)phenyl]amino)-5-thiazolyl](3-fluoro-4-methoxyphenyl)methanone]",0.014,0.8,1,0.8
"CN1CCN(c2ccc(Nc3nc(N)c(C(=O)c4ccc(N5CCCCC5)cc4)s3)cc2)CC1 [Example 27, [4-Amino-2-[[4-(4-methyl-1-piperazinyl)phenyl]amino]-5-thiazolyl][4-(1-piperidinyl)phenyl]methanone]",0.004,9.4,20.1,9.1
"COc1cccc(C(=O)c2sc(Nc3ccc(N4CCN(C)CC4)c(F)c3)nc2N)c1 [Example 40, [4-Amino-2-[[3-fluoro-4-(4-methyl-1-piperazinyl)phenyl]amino]-5-thiazolyl](3-methoxyphenyl)methanone]",0.014,3.1,1.3,3
"CN1CCN(c2ccc(Nc3nc(N)c(C(=O)c4ccc5c(c4)OCCO5)s3)cc2)CC1 [Example 24, [4-Amino-2-[[4-(4-methyl-1-piperazinyl)phenyl]amino]-5-thiazolyl](2,3-dihydro-1,4-benzodioxin-6-yl)methanone]",0.02,4.3,2.5,3.9
CC(=O)Nc1ccc(C(=O)c2sc(Nc3ccc(N4CCN(C(C)C)CC4)cc3)nc2N)cc1 [Example 45],0.025,4.9,5.6,2.9
"Nc1nc(Nc2ccc(N3CCN(CCO)CC3)cc2)sc1C(=O)c1cc(F)cc(F)c1 [Example 52, [4-Amino-2-[[4-[4-(2-hydroxyethyl)-1-piperazinyl]phenyl]amino]-5-thiazolyl](3,5-difluorophenyl)methanone]",0.028,0.7,1.2,2.3
"CN1CCN(c2ccc(Nc3nc(N)c(C(=O)c4ccc5c(c4)OCCCO5)s3)cc2)CC1 [Example 29, [4-Amino-2-[[4-(4-methyl-1-piperazinyl)phenyl]amino]-5-thiazolyl](3,4-dihydro-2H-1,5-benzodioxepin-7-yl)methanone]",0.103,9.6,15.9,9.5
"CN1CCN(c2ccc(Nc3nc(N)c(C(=O)c4cccc([N+](=O)[O-])c4)s3)cc2)CC1 [Example 31, [4-Amino-2-[[4-(4-methyl-1-piperazinyl)phenyl]amino]-5-thiazolyl](3-nitrophenyl)methanone]",0.026,2.3,0.5,4.1
